{"source": "patent US10513511B2", "about": "“Aqueous suspension formulation comprising 4-(4-(4-(((3R,5R)-5-((1H-1,2,4-triazol-1-yl)methyl)-5-(2,4-difluoro-phenyl)tetrahydrofuran-3-yl)methoxy)-3-methylphenyl) or a pharmaceutically acceptable salt thereof” (PULMOCIDE LIMITED, priority 2015, dated 2019)", "tested_on": "Aspergillus fumigatus (ATCC 13073)", "assay": "In vivo anti-fungal activity, extended prophylactic dosing in infected immunocompromised neutropenic mice", "design": "species or system A/J mice", "details": "for CFU in lung: mean ± SEM, N = 5", "protocol": "Aspergillus fumigatus (ATCC 13073 [strain: NIH 5233], American Type Culture Collection, Manassas, Va., USA) was grown on Malt agar (Nissui Pharmaceutical, Tokyo, Japan) plates for 6-7 days at RT (24±1° C.). Spores were aseptically dislodged from the agar plates and suspended in sterile distilled water with 0.05% Tween 80 and 0.1% agar. On the day of infection, spore counts were assessed by haemocytometer and the inoculum was adjusted to obtain a concentration of 1.67×10^8 spores mL^−1 of physiological saline. […] On day 0, animals were infected with the spore suspension (30 μL intra-nasally).\nTest substances were administered intra-nasally (35 μL of a suspension (0.0032-10.0 mg/mL of drug substance in physiological saline) once daily, on days 1, 2 and 3 only (thereby representing a therapeutic treatment regimen). […] One group was dosed 30 min before infection on day 0 but not subsequently, while a second group was further dosed on days 1, 2 and 3 after infection. The effects of these treatment paradigms were compared with those obtained when treatment was restricted in other groups to either one day or 30 min before inoculation and then on days 1, 2 and 3 post infection in both cases. In a final group, dosing was limited still further with animals dosed twice, one day and 30 min before infection only.\nAnimal body weights were monitored daily and at 6 hr after the last dose of drug was administered on day 3, the animals were anesthetised, the tracheas cannulated and BALF blood and lung tissue were collected. The levels of IL-6 and TNFα in serum were determined using Quantikine® mouse IL-6 or TNF-α ELISA kit (R&D systems, Inc., Minneapolis, Minn., USA) respectively. Aspergillus GM in serum was determination using Platelia GM-EIA kits (Bio-Rad Laboratories, Redmond, Wash., USA). Cut-off index (COI) was calculated by the formula: Cut-off index=OD in sample/OD in cut-off control provided in kit. For tissue fungal load assays, 100 mg of lung tissue was removed aseptically and homogenized in 0.2 mL of 0.1% agar in sterile distilled water. Serially diluted lung homogenates were plated on Malt agar plates (50 μL/plate), and incubated at 24±1° C. for 72 to 96 h. The colonies of A. fumigatus on each plate were counted and the fungal titre presented herein as CFUs per gram of lung tissue.", "key": {"[1]": {"details": "Days dosed −1 to + 3, 0.64 μg/mL"}, "[2]": {"details": "Days dosed −1 to + 3, 3.2 μg/mL"}, "[3]": {"details": "Days dosed −7 to + 3, 0.64 μg/mL"}, "[4]": {"details": "Days dosed −7 to + 3, 3.2 μg/mL"}}, "data": [{"smiles": "Cc1cc(N2CCN(c3ccc(C(=O)N[C@H]4CCCC[C@@H]4O)cc3)CC2)ccc1OC[C@@H]1CO[C@@](Cn2cncn2)(c2ccc(F)cc2F)C1", "note": "[Compound (Ia), 4-(4-(4-(((3R,5R)-5-((1H-1,2,4-triazol-1-yl)methyl)-5-(2,4-difluorophenyl)tetrahydrofuran-3-yl)methoxy)-3-methylphenyl)piperazin-1-yl)-N-((1S,2S)-2-hydroxycyclohexyl) benzamide]", "values": [{"measurement": "CFU in lung, % Inhibition", "setting": "Days dosed −1, 0, 3.2 μg/mL", "result": "−222", "unit": "%"}, {"measurement": "GM in BALF", "setting": "Days dosed −1, 0, 3.2 μg/mL", "result": "4.5 ± 0.63", "unit": "COI"}, {"measurement": "GM in BALF, % Inhibition", "setting": "Days dosed −1, 0, 3.2 μg/mL", "result": "−10", "unit": "%"}, {"measurement": "GM in Serum", "setting": "Days dosed −1, 0, 3.2 μg/mL", "result": "4.7 ± 0.65", "unit": "COI"}, {"measurement": "GM in Serum, % Inhibition", "setting": "Days dosed −1, 0, 3.2 μg/mL", "result": "−21", "unit": "%"}, {"measurement": "CFU in lung", "setting": "Days dosed −1, 0, 3.2 μg/mL intranasal", "result": "20.4 ± 15.7 /mg of lung"}, {"measurement": "CFU in lung, % Inhibition", "setting": "[1]", "result": 57, "unit": "%"}, {"measurement": "GM in BALF", "setting": "[1]", "result": "3.9 ± 0.59", "unit": "COI"}, {"measurement": "GM in BALF, % Inhibition", "setting": "[1]", "result": 5, "unit": "%"}, {"measurement": "GM in Serum", "setting": "[1]", "result": "3.6 ± 0.52", "unit": "COI"}, {"measurement": "GM in Serum, % Inhibition", "setting": "[1]", "result": 8, "unit": "%"}, {"measurement": "CFU in lung", "setting": "Days dosed −1 to + 3, 0.64 μg/mL intranasal", "result": "4.0 ± 5.2 /mg of lung"}, {"measurement": "CFU in lung, % Inhibition", "setting": "[2]", "result": 89, "unit": "%"}, {"measurement": "GM in BALF", "setting": "[2]", "result": "3.4 ± 0.46", "unit": "COI"}, {"measurement": "GM in BALF, % Inhibition", "setting": "[2]", "result": 17, "unit": "%"}, {"measurement": "GM in Serum", "setting": "[2]", "result": "2.8 ± 0.24", "unit": "COI"}, {"measurement": "GM in Serum, % Inhibition", "setting": "[2]", "result": 28, "unit": "%"}, {"measurement": "CFU in lung", "setting": "Days dosed −1 to + 3, 3.2 μg/mL intranasal", "result": "1.0 ± 1.4 /mg of lung"}, {"measurement": "CFU in lung, % Inhibition", "setting": "Days dosed −7 to 0, 3.2 μg/mL", "result": 90, "unit": "%"}, {"measurement": "GM in BALF", "setting": "Days dosed −7 to 0, 3.2 μg/mL", "result": "2.9 ± 0.97", "unit": "COI"}, {"measurement": "GM in BALF, % Inhibition", "setting": "Days dosed −7 to 0, 3.2 μg/mL", "result": 29, "unit": "%"}, {"measurement": "GM in Serum", "setting": "Days dosed −7 to 0, 3.2 μg/mL", "result": "2.6 ± 0.48", "unit": "COI"}, {"measurement": "GM in Serum, % Inhibition", "setting": "Days dosed −7 to 0, 3.2 μg/mL", "result": 33, "unit": "%"}, {"measurement": "CFU in lung", "setting": "Days dosed −7 to 0, 3.2 μg/mL intranasal", "result": "0.9 ± 1.1 /mg of lung"}, {"measurement": "CFU in lung, % Inhibition", "setting": "[3]", "result": 78, "unit": "%"}, {"measurement": "GM in BALF", "setting": "[3]", "result": "3.1 ± 0.85", "unit": "COI"}, {"measurement": "GM in BALF, % Inhibition", "setting": "[3]", "result": 24, "unit": "%"}, {"measurement": "GM in Serum", "setting": "[3]", "result": "2.6 ± 0.82", "unit": "COI"}, {"measurement": "GM in Serum, % Inhibition", "setting": "[3]", "result": 33, "unit": "%"}, {"measurement": "CFU in lung", "setting": "Days dosed −7 to + 3, 0.64 μg/mL intranasal", "result": "2.0 ± 3.6 /mg of lung"}, {"measurement": "CFU in lung, % Inhibition", "setting": "[4]", "result": 99.6, "unit": "%"}, {"measurement": "GM in BALF", "setting": "[4]", "result": "1.5 ± 0.59", "unit": "COI"}, {"measurement": "GM in BALF, % Inhibition", "setting": "[4]", "result": 63, "unit": "%"}, {"measurement": "GM in Serum", "setting": "[4]", "result": "1.5 ± 0.85", "unit": "COI"}, {"measurement": "GM in Serum, % Inhibition", "setting": "[4]", "result": 62, "unit": "%"}, {"measurement": "CFU in lung", "setting": "Days dosed −7 to + 3, 3.2 μg/mL intranasal", "result": "0.04 ± 0.08 /mg of lung"}]}]}
